Source: ChEMBL document CHEMBL1201862, “PubChem BioAssay data set” (2004)
Calls of active or inactive are those of the source.

What was measured:
[1] = biological target: T1, Histone-lysine N-methyltransferase NSD2 (Homo sapiens, UniProt O96028); format: biochemical
T1 sequence (O96028 whole entry): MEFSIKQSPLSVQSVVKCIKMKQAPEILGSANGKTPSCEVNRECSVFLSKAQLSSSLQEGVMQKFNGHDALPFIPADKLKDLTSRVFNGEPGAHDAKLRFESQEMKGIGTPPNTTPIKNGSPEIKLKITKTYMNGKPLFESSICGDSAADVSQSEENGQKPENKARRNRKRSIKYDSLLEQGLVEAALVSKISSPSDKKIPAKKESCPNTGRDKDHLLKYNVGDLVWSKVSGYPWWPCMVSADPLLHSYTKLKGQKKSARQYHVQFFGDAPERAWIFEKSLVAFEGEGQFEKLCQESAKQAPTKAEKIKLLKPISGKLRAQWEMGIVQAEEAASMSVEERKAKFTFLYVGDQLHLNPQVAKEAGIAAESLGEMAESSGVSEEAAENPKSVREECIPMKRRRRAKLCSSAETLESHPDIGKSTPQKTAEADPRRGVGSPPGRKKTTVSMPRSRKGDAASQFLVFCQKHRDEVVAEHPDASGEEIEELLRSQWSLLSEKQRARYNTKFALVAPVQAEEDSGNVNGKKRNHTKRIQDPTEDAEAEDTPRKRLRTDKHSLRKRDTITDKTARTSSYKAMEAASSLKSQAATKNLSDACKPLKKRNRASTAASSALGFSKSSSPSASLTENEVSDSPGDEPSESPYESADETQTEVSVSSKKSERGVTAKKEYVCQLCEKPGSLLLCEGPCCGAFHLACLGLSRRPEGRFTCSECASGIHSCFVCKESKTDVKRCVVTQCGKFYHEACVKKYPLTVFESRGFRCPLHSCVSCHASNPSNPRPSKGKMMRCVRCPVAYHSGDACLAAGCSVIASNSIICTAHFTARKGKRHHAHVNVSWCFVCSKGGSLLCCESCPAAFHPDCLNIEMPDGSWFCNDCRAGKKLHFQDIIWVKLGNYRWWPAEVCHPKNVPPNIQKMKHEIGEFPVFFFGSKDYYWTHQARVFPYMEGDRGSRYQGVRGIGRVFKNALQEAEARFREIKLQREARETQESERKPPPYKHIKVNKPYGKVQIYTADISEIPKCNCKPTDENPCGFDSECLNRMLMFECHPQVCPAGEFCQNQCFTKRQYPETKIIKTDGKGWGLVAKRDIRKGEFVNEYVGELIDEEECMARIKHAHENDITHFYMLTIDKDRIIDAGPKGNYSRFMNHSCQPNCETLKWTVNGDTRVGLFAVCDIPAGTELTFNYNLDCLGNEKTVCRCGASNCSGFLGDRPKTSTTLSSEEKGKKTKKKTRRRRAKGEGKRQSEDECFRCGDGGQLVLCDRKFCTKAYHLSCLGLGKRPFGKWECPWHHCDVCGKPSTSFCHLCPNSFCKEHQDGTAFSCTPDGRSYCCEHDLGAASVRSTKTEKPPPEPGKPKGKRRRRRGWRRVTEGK

[2] = biological target: Tyrosyl-DNA phosphodiesterase 2 (Homo sapiens, UniProt O95551); test: potency against TDP2 phosphodiesterase activity – biochemical, epi absorbance, IC50, dose response (AID 743297)
Chain of Tyrosyl-DNA phosphodiesterase 2 (O95551 whole entry): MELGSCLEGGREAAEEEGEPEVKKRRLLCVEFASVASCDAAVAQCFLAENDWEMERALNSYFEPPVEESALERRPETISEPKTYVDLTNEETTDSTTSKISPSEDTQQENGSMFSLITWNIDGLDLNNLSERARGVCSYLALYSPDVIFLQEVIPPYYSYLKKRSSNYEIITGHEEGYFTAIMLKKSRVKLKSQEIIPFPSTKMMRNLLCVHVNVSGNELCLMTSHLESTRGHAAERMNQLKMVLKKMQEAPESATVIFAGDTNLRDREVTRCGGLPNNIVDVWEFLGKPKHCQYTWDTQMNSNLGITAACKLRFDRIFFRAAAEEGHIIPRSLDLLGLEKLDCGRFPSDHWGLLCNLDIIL

[3] = biological target: Serine/threonine-protein phosphatase PP1-alpha catalytic subunit (Homo sapiens, UniProt P62136); test: inhibition of protein phosphatase 1 activity – biochemical, fluorescence, dose response (AID 2394)
Chain of Serine/threonine-protein phosphatase PP1-alpha catalytic subunit (P62136 whole entry): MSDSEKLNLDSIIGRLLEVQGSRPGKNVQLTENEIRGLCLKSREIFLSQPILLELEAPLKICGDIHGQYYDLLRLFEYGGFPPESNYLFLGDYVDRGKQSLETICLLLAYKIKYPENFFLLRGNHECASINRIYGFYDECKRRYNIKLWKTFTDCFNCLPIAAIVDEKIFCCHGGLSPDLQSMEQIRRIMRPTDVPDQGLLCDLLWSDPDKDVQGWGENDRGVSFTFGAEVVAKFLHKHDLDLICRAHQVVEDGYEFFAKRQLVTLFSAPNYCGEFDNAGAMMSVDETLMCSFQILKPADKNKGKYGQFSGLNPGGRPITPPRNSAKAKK

[4] = biological target: T2, Apoptotic protease-activating factor 1 (Homo sapiens, UniProt O14727); format: functional
T2 sequence (O14727 whole entry): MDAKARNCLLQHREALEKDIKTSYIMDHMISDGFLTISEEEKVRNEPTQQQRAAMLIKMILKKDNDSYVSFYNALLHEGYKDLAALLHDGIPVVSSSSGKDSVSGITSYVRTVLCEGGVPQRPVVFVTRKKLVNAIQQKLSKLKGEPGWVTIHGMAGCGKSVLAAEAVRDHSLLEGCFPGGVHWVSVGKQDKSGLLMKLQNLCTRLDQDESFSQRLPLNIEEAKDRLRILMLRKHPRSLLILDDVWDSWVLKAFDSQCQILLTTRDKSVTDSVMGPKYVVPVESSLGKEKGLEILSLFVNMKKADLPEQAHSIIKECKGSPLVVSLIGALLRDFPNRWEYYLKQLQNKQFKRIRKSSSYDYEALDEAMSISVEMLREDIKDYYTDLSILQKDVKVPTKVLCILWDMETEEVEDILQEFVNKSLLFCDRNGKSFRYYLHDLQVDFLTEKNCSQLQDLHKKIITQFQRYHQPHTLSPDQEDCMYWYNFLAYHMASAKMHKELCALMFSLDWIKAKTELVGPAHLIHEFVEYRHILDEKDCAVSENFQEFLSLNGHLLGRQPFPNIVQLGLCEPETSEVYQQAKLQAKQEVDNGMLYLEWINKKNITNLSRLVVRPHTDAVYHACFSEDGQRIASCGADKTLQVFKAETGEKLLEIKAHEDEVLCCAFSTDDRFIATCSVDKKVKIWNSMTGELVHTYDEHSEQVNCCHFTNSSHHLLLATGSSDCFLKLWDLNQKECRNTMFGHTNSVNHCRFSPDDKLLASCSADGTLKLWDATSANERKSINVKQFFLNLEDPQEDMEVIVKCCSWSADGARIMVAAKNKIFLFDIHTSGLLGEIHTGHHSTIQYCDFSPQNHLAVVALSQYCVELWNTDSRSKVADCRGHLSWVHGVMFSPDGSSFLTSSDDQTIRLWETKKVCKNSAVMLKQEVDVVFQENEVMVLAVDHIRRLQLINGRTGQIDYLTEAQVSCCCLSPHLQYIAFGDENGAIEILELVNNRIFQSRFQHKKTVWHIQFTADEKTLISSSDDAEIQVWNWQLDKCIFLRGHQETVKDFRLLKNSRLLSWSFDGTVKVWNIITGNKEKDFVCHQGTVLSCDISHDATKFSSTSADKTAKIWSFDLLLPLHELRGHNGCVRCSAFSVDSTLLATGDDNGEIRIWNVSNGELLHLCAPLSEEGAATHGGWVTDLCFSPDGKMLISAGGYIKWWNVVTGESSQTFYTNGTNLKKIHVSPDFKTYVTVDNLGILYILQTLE

[5] = biological target: T3, Sentrin-specific protease 8 (Homo sapiens, UniProt Q96LD8); test: inhibition of human SENP8 cleavage activity – biochemical, luminescence, SAR follow-up (AID 504501); format: functional
T3 sequence (Q96LD8 whole entry): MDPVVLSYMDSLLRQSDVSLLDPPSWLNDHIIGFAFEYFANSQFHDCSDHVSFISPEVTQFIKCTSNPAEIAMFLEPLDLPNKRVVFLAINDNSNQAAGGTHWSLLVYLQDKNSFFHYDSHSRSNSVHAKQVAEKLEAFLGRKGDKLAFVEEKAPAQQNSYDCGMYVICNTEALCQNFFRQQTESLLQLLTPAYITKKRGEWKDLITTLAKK

| AC50 [1] | IC50 [2] | SMILES | IC50 [3] | IC50 [4] | IC50 [5] |
| --- | --- | --- | --- | --- | --- |
| 5.86 µM (active) | 52.5 µM (inactive) | CCOC(=O)C1=C(COC(=O)c2ccc([N+](=O)[O-])s2)NC(=O)NC1C (stereo not given) |  |  |  |
|  |  | Oc1cccc(/C=N/Nc2cc(N3CCCC3)nc(N3CCCC3)n2)c1 | 21.6 µM (not active) | 1.84 µM (active) | > 99 µM (inactive) |
